Data published in patent US5932554A (priority 1997, dated 1999).

Biological target: cholera toxin (Vibrio cholerae serotype O1, UniProt P01556)
Assay: biochemical
Type: binding, V. cholerae

cholera toxin, sequence (P01556 22-124 limits assumed): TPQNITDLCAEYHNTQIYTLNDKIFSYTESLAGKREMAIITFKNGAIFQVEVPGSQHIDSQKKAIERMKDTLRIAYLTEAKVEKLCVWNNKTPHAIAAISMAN

OC[C@H]1OC(O)[C@H](O)[C@@H](O)[C@H]1O (stereo partly drawn) [D-galactose]
IC50: 30 mM
